Test results reported in patent US20080306076A1, “MODULATION OF CHEMOSENSORY RECEPTORS AND LIGANDS ASSOCIATED THEREWITH” (SENOMYX, INC., priority 2007, published 2008).

Experiments:
hT1R1/hT1R3 = biological target: T1, hT1R1/hT1R3 (Homo sapiens, UniProt Q7RTX1); experiment: In vitro hT1R1/hT1R3 enhancement assay (FLIPR): shift of the monosodium glutamate EC50 (EC50R); format: cell-based; conditions: EC50 of monosodium glutamate without / with test compound
T1 construct: expressed in transfected cells; host or cells: HEK293 derivative stably expressing Gα15, clone I-17, mifepristone-induced
T1 sequence (Q7RTX1 21-841): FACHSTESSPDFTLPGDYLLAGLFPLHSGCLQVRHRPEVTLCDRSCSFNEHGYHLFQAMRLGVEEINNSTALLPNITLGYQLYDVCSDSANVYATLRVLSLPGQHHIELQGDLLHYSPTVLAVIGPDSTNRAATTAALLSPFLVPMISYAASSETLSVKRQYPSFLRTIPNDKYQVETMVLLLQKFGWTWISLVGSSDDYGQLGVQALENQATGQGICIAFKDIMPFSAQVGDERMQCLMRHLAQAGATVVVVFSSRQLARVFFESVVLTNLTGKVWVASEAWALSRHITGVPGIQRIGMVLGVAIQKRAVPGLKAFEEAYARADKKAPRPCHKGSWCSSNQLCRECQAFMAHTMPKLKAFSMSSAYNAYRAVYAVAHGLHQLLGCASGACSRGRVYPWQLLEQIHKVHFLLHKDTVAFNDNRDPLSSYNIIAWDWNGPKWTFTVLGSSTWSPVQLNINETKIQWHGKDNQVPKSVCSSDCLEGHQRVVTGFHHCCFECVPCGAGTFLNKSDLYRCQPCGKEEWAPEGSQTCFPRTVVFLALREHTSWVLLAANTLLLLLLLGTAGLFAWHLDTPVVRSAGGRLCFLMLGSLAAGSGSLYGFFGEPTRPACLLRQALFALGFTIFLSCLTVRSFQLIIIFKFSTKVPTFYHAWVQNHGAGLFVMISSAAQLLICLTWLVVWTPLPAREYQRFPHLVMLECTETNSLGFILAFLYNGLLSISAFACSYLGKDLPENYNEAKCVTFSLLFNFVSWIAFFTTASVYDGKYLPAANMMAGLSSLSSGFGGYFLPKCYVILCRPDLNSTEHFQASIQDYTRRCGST
T1 sequence (Q7RTX0 21-852 partner): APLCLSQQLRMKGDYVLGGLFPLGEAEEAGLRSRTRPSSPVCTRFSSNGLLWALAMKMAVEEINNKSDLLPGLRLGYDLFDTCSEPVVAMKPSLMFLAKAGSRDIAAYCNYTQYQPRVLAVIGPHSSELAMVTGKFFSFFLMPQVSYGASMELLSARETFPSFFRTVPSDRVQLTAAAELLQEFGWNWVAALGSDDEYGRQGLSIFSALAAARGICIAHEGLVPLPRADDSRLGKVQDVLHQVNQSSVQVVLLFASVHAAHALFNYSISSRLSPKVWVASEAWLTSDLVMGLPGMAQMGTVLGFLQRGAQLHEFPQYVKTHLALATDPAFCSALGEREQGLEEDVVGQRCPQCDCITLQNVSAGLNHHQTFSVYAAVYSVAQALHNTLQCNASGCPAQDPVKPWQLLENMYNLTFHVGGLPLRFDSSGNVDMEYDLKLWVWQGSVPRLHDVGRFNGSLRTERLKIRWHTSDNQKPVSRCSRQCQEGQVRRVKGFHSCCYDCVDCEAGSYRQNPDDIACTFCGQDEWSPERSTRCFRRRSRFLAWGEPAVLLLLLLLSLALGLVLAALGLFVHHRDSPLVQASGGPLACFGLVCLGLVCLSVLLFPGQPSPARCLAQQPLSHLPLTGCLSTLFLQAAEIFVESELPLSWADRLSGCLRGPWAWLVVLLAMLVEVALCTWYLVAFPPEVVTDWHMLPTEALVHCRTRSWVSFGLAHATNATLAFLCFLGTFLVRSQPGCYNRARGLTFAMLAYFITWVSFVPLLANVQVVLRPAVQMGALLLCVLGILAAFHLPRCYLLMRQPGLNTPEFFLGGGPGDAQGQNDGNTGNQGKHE
Experimental: An HEK293 cell line derivative (See e.g., Chandrashekar, et al., Cell (2000) 100: 703-711) which stably expresses Gα15 and hT1R1/hT1R3 under an inducible promoter (see e.g., International Publication No. WO 03/001876 A2) was used in association with identifying compounds with umami tasting properties.
Compounds were initially selected based on activity in the hT1R1/hT1R3-HEK293-Gα15 cell line. Activity was determined using an automated fluorometric imaging assay on a FLIPR instrument (Fluorometric Intensity Plate Reader, Molecular Devices, Sunnyvale, Calif.) (designated FLIPR assay). Cells from one clone (designated clone I-17) were seeded into 384-well plates (at approximately 48,000 cells per well) in a medium containing Dulbecco's modified Eagle's medium (DMEM) supplemented with GlutaMAX (Invitrogen, Carlsbad, Calif.), 10% dialyzed fetal bovine serum (Invitrogen, Carlsbad, Calif.), 100 Units/ml Penicillin G, 100 μg/ml Streptomycin (Invitrogen, Carlsbad, Calif.) and 60 pM mifepristone (to induce expression of hT1R1/hT1R3 (see e.g., International Publication No. WO 03/001876 A2).
I-17 cells were grown for 48 hours at 37° C. 1-17 cells were then loaded with the calcium dye Fluo-3AM (Molecular Probes, Eugene, Oreg.), 4 μM in a phosphate buffered saline (D-PBS) (Invitrogen, Carlsbad, Calif.), for 1.5 hours at room temperature. After replacement with 25 μl D-PBS, stimulation was performed in the FLIPR instrument and at room temperature by the addition of 25 μl D-PBS supplemented with different stimuli at concentrations corresponding to twice the desired final level.
Receptor activity was quantified by determining the maximal fluorescence increases (using a 480 nm excitation and 535 nm emission) after normalization to basal fluorescence intensity measured before stimulation. For dose-responses analysis, stimuli were presented in duplicates at 10 different concentrations ranging from 1.5 nM to 3 μM.
Activities were normalized to the response obtained with 60 mM monosodium glutamate, a concentration that elicits maximum receptor response. EC50s (concentration of compound that causes 50% activation of receptor) were determined using a non-linear regression algorithm, where the Hill slope, bottom asymptotes and top asymptotes were allow to vary. Identical results were obtained when analyzing the dose-response data using commercially available software for non-linear regression analysis such as GraphPad PRISM (San Diego, Calif.).
Experiments were also conducted to determine if test compounds can enhance the effect of monosodium glutamate on hT1R1/hT1R3 activity. In this assay, increasing concentrations of monosodium glutamate (ranging from 12 μM to 81 mM) were presented, in duplicates, in the presence or absence of a fixed concentration of the test compound. Typical compound concentrations tested were 100 μM, 30 μM, 10 μM, 3 μM, 1 μM, 0.3 μM, 0.1 μM and 0.03 μM. The relative efficacy of compounds at enhancing the receptor was determined by the calculating the magnitude of a shift in the EC50 for monosodium glutamate.
Enhancement was defined as a ratio (EC50R) corresponding to the EC50 of monosodium glutamate, determined in the absence of the test compound, divided by the EC50 of monosodium glutamate, determined in the presence of the test compound. In some embodiments, compounds have an EC50R between about 0.7 and about 100. In other embodiments, compounds have an EC50R between about 1.25 and about 75. In still other embodiments, compounds have an EC50R between about 1.50 and about 60. Assay results for compounds are disclosed in the table below.

un-induced I-17 cells = experiment: FLIPR assay on un-induced I-17 cells (no receptor expression); format: cell-based; conditions: monosodium glutamate
Experimental: In order to determine the dependency of hT1R1/hT1R3 for the cell response to different stimuli, selected compounds were subjected to a similar analysis on I-17 cells that had not been induced for receptor expression with mifepristone (designated as un-induced I-17 cells). […] Compounds were presented to un-induced umami cells at […]—or three times the maximum stimulation used in the dose-response analysis.

EC50 ratio (hT1R1/hT1R3; test compound 30 μM)	EC50 ratio (hT1R1/hT1R3; test compound 100 μM)	SMILES	functional response in FLIPR assay (un-induced I-17 cells)
1.67	12.91	COc1ccccc1C(=O)Nc1nc(O)c2ncn([C@@H]3O[C@H](COP(=O)(O)O)[C@@H](O)[C@H]3O)c2n1 [Compound 1]	–
1.07	1.19	Cc1cccc(C(=O)Nc2nc(O)c3ncn([C@@H]4O[C@H](COP(=O)(O)O)[C@@H](O)[C@H]4O)c3n2)c1 [Compound 4]	–
1.21	2.22	O=C(COc1ccccc1)Nc1nc(O)c2ncn([C@@H]3O[C@H](COP(=O)(O)O)[C@@H](O)[C@H]3O)c2n1 [Compound 5]	–
–	–	N[C@@H](CCC(=O)O)C(=O)[O-].[Na+] [monosodium glutamate]	do not show any functional response
